The source of these data is EP4039264A1, “ORAL PEPTIDE ANTAGONISTS OF MULTIPLE CHEMOKINE RECEPTORS FOR REVERSING LOSS OF SYNAPSES AND DENDRITIC SPINES” (Creative Bio-Peptides Inc., priority 2021, dated 2022).

The conditions of test [1]: HAND phase 2 human trials and brain scans; cited from earlier work.
Test [2] has as its target CXCR4 (Mus musculus, UniProt P70658). Particulars: CXCR4 tropic gp120; cultured mouse hippocampal neurons devoid of immune cells. As to the method:
Aβd/t was isolated from medium of cultured 7PA2 cells, a CHO cell line expressing a form of human APP found in Familial AD. […] Neuronal cultures, fixation, permeabilization, blocking and immunostaining is performed starting with E16.5 mouse hippocampal neurons by common methods in broad use.
Images of fixed neurons immunostained for cofilin, growth cones and nuclei captured across the entire coverslip are exported to ImageJ. Macro functions are applied to set local threshold and shape/size segmentation for both the cofilin and growth cone antibodies. Cofilin stained material that is not within neurites is eliminated. Results are reported as rods/nucleus, number of rods per area, rods as percent of total area, or, if NeuN stained or identified morphologically, rods per neuron.

In test [3] the target is T1, CCR5 (Mus musculus, UniProt P51682).
T1 construct: neurons express CCR5 and CXCR4 receptors that control synapse regeneration; endogenous in cells; host or cells: primary E16.5 mouse hippocampal neurons
T1 sequence (P51682 whole entry): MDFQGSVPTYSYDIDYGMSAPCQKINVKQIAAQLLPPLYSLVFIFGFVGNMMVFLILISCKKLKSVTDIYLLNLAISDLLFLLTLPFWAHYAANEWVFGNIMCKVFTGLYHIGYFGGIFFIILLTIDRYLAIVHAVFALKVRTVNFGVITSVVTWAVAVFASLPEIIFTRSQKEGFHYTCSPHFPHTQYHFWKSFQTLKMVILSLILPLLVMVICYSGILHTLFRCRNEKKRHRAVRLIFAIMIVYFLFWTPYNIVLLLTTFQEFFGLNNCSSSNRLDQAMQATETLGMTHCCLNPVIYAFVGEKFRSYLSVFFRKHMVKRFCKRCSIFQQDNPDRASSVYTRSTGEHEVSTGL
Nature of the test: gp120-induced cofilin-rod formation in cultured hippocampal neurons, CCR5-tropic gp120 (Fig. 2A). Type of test: cell-based. The settings on record: cultured mouse hippocampal neurons devoid of immune cells.

Test [4] concerns CCR5. The settings on record: pharmacologic blockade of CCR5 after stroke and traumatic brain injury; cited from earlier work.

Sequence of CXCR4 (P70658 whole entry): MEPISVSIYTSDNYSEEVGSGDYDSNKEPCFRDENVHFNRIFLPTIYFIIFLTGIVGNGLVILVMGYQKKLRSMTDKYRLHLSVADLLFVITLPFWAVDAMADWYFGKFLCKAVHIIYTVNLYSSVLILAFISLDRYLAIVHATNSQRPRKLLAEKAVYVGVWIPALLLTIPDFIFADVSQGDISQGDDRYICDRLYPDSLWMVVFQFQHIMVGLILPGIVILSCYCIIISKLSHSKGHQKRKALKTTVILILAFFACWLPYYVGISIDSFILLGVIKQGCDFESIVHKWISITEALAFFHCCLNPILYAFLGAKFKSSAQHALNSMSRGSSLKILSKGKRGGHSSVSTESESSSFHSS

As for “[D-Ala1]-Ser-Thr-Thr-Thr-Asn-Tyr-Thr-NH2 [DAPTA]”, in test [1], the cognitive deficits result is on record as “able to reverse cognitive deficits”.

For `c1cc(CN2CCCNCCNCCCNCC2)ccc1CN1CCCNCCNCCCNCC1` [AMD3100], the “cofilin-rods formed by neurons treated with gp120” value in test [2] is given as “inhibited”.

For the compound `Cc1nnc(C(C)C)n1[C@@H]1C[C@H]2CC[C@@H](C1)N2CC[C@H](NC(=O)C1CCC(F)(F)CC1)c1ccccc1` [maraviroc], the “cofilin-rods formed by neurons treated with gp120” value in test [3] was “inhibited”. For the same compound, the “dendritic spines and neurite cortical projections” value in test [4] was “preservation of dendritic spines and new patterns of neurite cortical projections”.
